Results: patent US5948884A, “Cyclosporin derivatives with anti-HIV effect” (priority 1995, dated 1999)
≈ marks a conversion by molar mass, not a printed value.

What was measured:
HIV-1 (strain IIIB) = details: MT4 cells infected with HIV-1 IIIB; p24 ELISA on third and fourth days after infection
Procedure: Test for Antiviral Activity
HIV-1 (strain IIIB) was adsorbed on the cells for 2 hours at 37°. The inoculum was then removed and the infected cells were transferred to tissue culture plates which contained the test compound at different concentrations. In this context, the virus inoculum was chosen such that the concentration of viral p24 antigen increased exponentially in the cell supernatant up to the fourth day after the infection. On the third and fourth days after the infection, the cell supernatants were analyzed by ELISA for p24 antigen. IC50 values were determined by comparing the p24 concentrations in the supernatant from the infected, substance-treated cells and in the supernatant from the untreated infected control cells.

HIV = details: relative to the most strongly active substances of EP 484 281; cited from earlier work

Compound	IC50 (p24 antigen in cell supernatant) (HIV-1 (strain IIIB))	activity against HIV, times weaker than MeIle-4-cyclosporin or MeVal-4-cyclosporin (HIV)
C/C=C/C[C@@H](C)[C@@H](O)[C@H]1C(=O)N[C@@H](CC)C(=O)N(C)[C@H](CO)C(=O)N(C)[C@@H](CC(C)(C)O)C(=O)N[C@@H](C(C)C)C(=O)N(C)[C@@H](CC(C)C)C(=O)N[C@@H](C)C(=O)N[C@H](C)C(=O)N(C)[C@@H](CC(C)C)C(=O)N(C)[C@@H](CC(C)C)C(=O)N(C)[C@@H](C(C)C)C(=O)N1C [3-N-methyl-(D)-serine-4-(gamma-hydroxy)-N-methylleucinecyclosporin]	0.1 µg/mL (≈ 0.0801 µM)	–
(gamma-hydroxy-N-methylleucine)cyclosporin	–	5-6 times
